From publication PMC8398847, “Isavuconazole: Thermodynamic Evaluation of Processes Sublimation, Dissolution and Partition in Pharmaceutically Relevant Media” (Molecules, 2021)
Read-outs that look alike come from different tables or passages of the source.

Experiments:
[1] = Solubility data modeling (modified Apelblat and van’t Hoff equations)
Source text: The modified Apelblat model developed for nonideal solutions is one of the most frequently used models for prediction and correlation of solubility data and can be expressed as follows:(21) lnx=A+B/T/K+Cln(T/K) where x is the compound solubility in the studied solvents, which can be determined by Equation (8); T is the absolute temperature; A, B and C are three empirical constants of the equation. The A and B values represent changes in the solution behavior as a result of the nonideality of the solute solubility, whereas C reflects the connection between the melting point and enthalpy. Despite its simple mathematical expression, this model can ensure high accuracy of prediction of the solute solubility at a variety of temperature values.
The van’t Hoff equation can be used to calculate the relationship between the solubility of solute and temperature. The equation can be simplified as Equation (22). (22) lnx=A+B/(T/K) where x represents the mole fraction solubility of compound. T is the absolute temperature and A, B are the regression parameters obtained using multivariable least-square method.

[2] = Partition experiment, 1-octanol/buffer pH 7.4, shake flask; type: physicochemical; details: for logP at 24 h: 1-octanol/buffer pH 7.4, pH 7.4, 1-octanol/buffer pH 7.4, read-out: logP*O/B (mole fraction scale); for PO/B / logPO/B / sB · 10^6 (equilibrium molar concentration, buffer phase) / sO · 10^3 (equilibrium molar concentration, organic phase) / xB · 10^7 (mole fraction, buffer phase) / xo · 10^4 (mole fraction, 1-octanol phase): 1-octanol/buffer pH 7.4
Method: The partition coefficients in the 1-octanol/buffer pH 7.4 system were determined by the shake flask method in the temperature range 293.15–313.15 K. The total volume of the two-phase system 80 cm^3 with the ratio of the organic phase to the volume of the aqueous phase 1:1 was used. Before the experiment, both solvents were mutually saturated by stirring in a large vessel for two days. […] The flasks with the test compound were stirred for 24 h in an air thermostat until complete equilibrium was ensured, as evidenced by the absence of turbidity in each of the phases. The final drug concentrations in both immiscible phases were measured spectrophotometrically.
The partition coefficients in 1-octanol/buffer system (PO/B) were calculated as the ratio of the equilibrium molar concentrations in the organic (sO) and buffer (sB )phases:PO/B =sO/sB(9)
The value P*O/B expressed in mole fraction were determined by follow equation:P*O/B = xO/xB(10)
The standard transfer enthalpy of drug was calculated based on the experimental temperature dependence of partition coefficients using van’t Hoff method:(11) d(lnPO/B*)/dT=ΔtrH^0/RT^2 whereas the standard Gibbs energy of transfer process from the buffer to 1-octanol was evaluated:∆trG° = −RTlnP*O/B(12)
The standard transfer entropy (∆trS°) is obtained by means of relationship:∆trS° =(∆trH° − ∆trG°)/T(13)
The transfer thermodynamic functions represent the change in the enthalpy and entropy terms when one solute mole is transferred from the aqueous phase to the organic phase at infinite dilution.

[3] = transfer from buffer pH 7.4 to 1-octanol

C[C@@H](c1nc(-c2ccc(C#N)cc2)cs1)[C@](O)(Cn1cncn1)c1cc(F)ccc1F [IVZ, Isavuconazole]
xcal modified Apelblat equation ([1]; 1-octanol, 293.15 K): 6.2160·10^−3
xcal van’t Hoff equation ([1]; 1-octanol, 293.15 K): 6.2245·10^−3
xcal modified Apelblat equation ([1]; 1-octanol, 298.15 K): 7.4880·10^−3
xcal van’t Hoff equation ([1]; 1-octanol, 298.15 K): 7.4831·10^−3
xcal modified Apelblat equation ([1]; 1-octanol, 303.15 K): 8.9532·10^−3
xcal van’t Hoff equation ([1]; 1-octanol, 303.15 K): 8.9416·10^−3
xcal modified Apelblat equation ([1]; 1-octanol, 308.15 K): 10.629·10^−3
xcal van’t Hoff equation ([1]; 1-octanol, 308.15 K): 10.623·10^−3
xcal modified Apelblat equation ([1]; 1-octanol, 313.15 K): 12.534·10^−3
xcal van’t Hoff equation ([1]; 1-octanol, 313.15 K): 12.551·10^−3
xcal modified Apelblat equation ([1]; 1-propanol, 293.15 K): 7.8833·10^−3
xcal van’t Hoff equation ([1]; 1-propanol, 293.15 K): 7.8924·10^−3
xcal modified Apelblat equation ([1]; 1-propanol, 298.15 K): 9.5597·10^−3
xcal van’t Hoff equation ([1]; 1-propanol, 298.15 K): 9.5750·10^−3
xcal modified Apelblat equation ([1]; 1-propanol, 303.15 K): 11.528·10^−3
xcal van’t Hoff equation ([1]; 1-propanol, 303.15 K): 11.542·10^−3
xcal modified Apelblat equation ([1]; 1-propanol, 308.15 K): 13.827·10^−3
xcal van’t Hoff equation ([1]; 1-propanol, 308.15 K): 13.830·10^−3
xcal modified Apelblat equation ([1]; 1-propanol, 313.15 K): 16.501·10^−3
xcal van’t Hoff equation ([1]; 1-propanol, 313.15 K): 16.475·10^−3
xcal modified Apelblat equation ([1]; buffer pH 1.2, 293.15 K): 6.8301·10^−7
xcal van’t Hoff equation ([1]; buffer pH 1.2, 293.15 K): 6.8234·10^−7
xcal modified Apelblat equation ([1]; buffer pH 1.2, 298.15 K): 7.6469·10^−7
xcal van’t Hoff equation ([1]; buffer pH 1.2, 298.15 K): 7.6519·10^−7
xcal modified Apelblat equation ([1]; buffer pH 1.2, 303.15 K): 8.5388·10^−7
xcal van’t Hoff equation ([1]; buffer pH 1.2, 303.15 K): 8.5488·10^−7
xcal modified Apelblat equation ([1]; buffer pH 1.2, 308.15 K): 9.5109·10^−7
xcal van’t Hoff equation ([1]; buffer pH 1.2, 308.15 K): 9.5164·10^−7
xcal modified Apelblat equation ([1]; buffer pH 1.2, 313.15 K): 10.568·10^−7
xcal van’t Hoff equation ([1]; buffer pH 1.2, 313.15 K): 10.557·10^−7
xcal modified Apelblat equation ([1]; buffer pH 2.0, 293.15 K): 1.8489·10^−7
xcal van’t Hoff equation ([1]; buffer pH 2.0, 293.15 K): 1.8386·10^−7
xcal modified Apelblat equation ([1]; buffer pH 2.0, 298.15 K): 2.2301·10^−7
xcal van’t Hoff equation ([1]; buffer pH 2.0, 298.15 K): 2.2353·10^−7
xcal modified Apelblat equation ([1]; buffer pH 2.0, 303.15 K): 2.6872·10^−7
xcal van’t Hoff equation ([1]; buffer pH 2.0, 303.15 K): 2.7002·10^−7
xcal modified Apelblat equation ([1]; buffer pH 2.0, 308.15 K): 3.2354·10^−7
xcal van’t Hoff equation ([1]; buffer pH 2.0, 308.15 K): 3.2418·10^−7
xcal modified Apelblat equation ([1]; buffer pH 2.0, 313.15 K): 3.8914·10^−7
xcal van’t Hoff equation ([1]; buffer pH 2.0, 313.15 K): 3.8694·10^−7
xcal modified Apelblat equation ([1]; buffer pH 7.4, 293.15 K): 1.1915·10^−7
xcal van’t Hoff equation ([1]; buffer pH 7.4, 293.15 K): 1.1936·10^−7
xcal modified Apelblat equation ([1]; buffer pH 7.4, 298.15 K): 1.4708·10^−7
xcal van’t Hoff equation ([1]; buffer pH 7.4, 298.15 K): 1.4693·10^−7
xcal modified Apelblat equation ([1]; buffer pH 7.4, 303.15 K): 1.7998·10^−7
xcal van’t Hoff equation ([1]; buffer pH 7.4, 303.15 K): 1.7964·10^−7
xcal modified Apelblat equation ([1]; buffer pH 7.4, 308.15 K): 2.1840·10^−7
xcal van’t Hoff equation ([1]; buffer pH 7.4, 308.15 K): 2.1821·10^−7
xcal modified Apelblat equation ([1]; buffer pH 7.4, 313.15 K): 2.6294·10^−7
xcal van’t Hoff equation ([1]; buffer pH 7.4, 313.15 K): 2.6341·10^−7
xcal modified Apelblat equation ([1]; ethanol, 293.15 K): 0.9240·10^−2
xcal van’t Hoff equation ([1]; ethanol, 293.15 K): 0.9213·10^−2
xcal modified Apelblat equation ([1]; ethanol, 298.15 K): 1.1326·10^−2
xcal van’t Hoff equation ([1]; ethanol, 298.15 K): 1.1348·10^−2
xcal modified Apelblat equation ([1]; ethanol, 303.15 K): 1.3835·10^−2
xcal van’t Hoff equation ([1]; ethanol, 303.15 K): 1.3883·10^−2
xcal modified Apelblat equation ([1]; ethanol, 308.15 K): 1.6844·10^−2
xcal van’t Hoff equation ([1]; ethanol, 308.15 K): 1.6873·10^−2
xcal modified Apelblat equation ([1]; ethanol, 313.15 K): 2.0441·10^−2
xcal van’t Hoff equation ([1]; ethanol, 313.15 K): 2.0379·10^−2
xcal modified Apelblat equation ([1]; hexane, 293.15 K): 5.5187·10^−5
xcal van’t Hoff equation ([1]; hexane, 293.15 K): 5.5171·10^−5
xcal modified Apelblat equation ([1]; hexane, 298.15 K): 7.0549·10^−5
xcal van’t Hoff equation ([1]; hexane, 298.15 K): 7.0584·10^−5
xcal modified Apelblat equation ([1]; hexane, 303.15 K): 8.9506·10^−5
xcal van’t Hoff equation ([1]; hexane, 303.15 K): 8.9572·10^−5
xcal modified Apelblat equation ([1]; hexane, 308.15 K): 11.274·10^−5
xcal van’t Hoff equation ([1]; hexane, 308.15 K): 11.279·10^−5
xcal modified Apelblat equation ([1]; hexane, 313.15 K): 14.103·10^−5
xcal van’t Hoff equation ([1]; hexane, 313.15 K): 14.099·10^−5
logP at 24 h ([2]; 293.15 K): 3.44
logP at 24 h ([2]; 298.15 K): 3.5
logP at 24 h ([2]; 303.15 K): 3.56
logP at 24 h ([2]; 308.15 K): 3.62
logP at 24 h ([2]; 313.15 K): 3.68
PO/B ([2]; 293.15 K): 313.71
logPO/B ([2]; 293.15 K): 2.50
sB · 10^6 (equilibrium molar concentration, buffer phase) ([2]; 293.15 K): 6.85
sO · 10^3 (equilibrium molar concentration, organic phase) ([2]; 293.15 K): 2.15
xB · 10^7 (mole fraction, buffer phase) ([2]; 293.15 K): 1.22
xo · 10^4 (mole fraction, 1-octanol phase) ([2]; 293.15 K): 3.39
PO/B ([2]; 298.15 K): 359.18
logPO/B ([2]; 298.15 K): 2.56
sB · 10^6 (equilibrium molar concentration, buffer phase) ([2]; 298.15 K): 5.98
sO · 10^3 (equilibrium molar concentration, organic phase) ([2]; 298.15 K): 2.15
xB · 10^7 (mole fraction, buffer phase) ([2]; 298.15 K): 1.07
xo · 10^4 (mole fraction, 1-octanol phase) ([2]; 298.15 K): 3.40
PO/B ([2]; 303.15 K): 413.63
logPO/B ([2]; 303.15 K): 2.62
sB · 10^6 (equilibrium molar concentration, buffer phase) ([2]; 303.15 K): 5.20
sO · 10^3 (equilibrium molar concentration, organic phase) ([2]; 303.15 K): 2.15
xB · 10^7 (mole fraction, buffer phase) ([2]; 303.15 K): 0.93
xo · 10^4 (mole fraction, 1-octanol phase) ([2]; 303.15 K): 3.42
PO/B ([2]; 308.15 K): 474.77
logPO/B ([2]; 308.15 K): 2.68
sB · 10^6 (equilibrium molar concentration, buffer phase) ([2]; 308.15 K): 4.53
sO · 10^3 (equilibrium molar concentration, organic phase) ([2]; 308.15 K): 2.15
xB · 10^7 (mole fraction, buffer phase) ([2]; 308.15 K): 0.81
xo · 10^4 (mole fraction, 1-octanol phase) ([2]; 308.15 K): 3.43
PO/B ([2]; 313.15 K): 535.22
logPO/B ([2]; 313.15 K): 2.73
sB · 10^6 (equilibrium molar concentration, buffer phase) ([2]; 313.15 K): 4.02
sO · 10^3 (equilibrium molar concentration, organic phase) ([2]; 313.15 K): 2.15
xB · 10^7 (mole fraction, buffer phase) ([2]; 313.15 K): 0.72
xo · 10^4 (mole fraction, 1-octanol phase) ([2]; 313.15 K): 3.45
TΔtrS° [2, 3]: TΔtrS° = 40.9 ± 1.5/kJ·mol^−1
ΔtrG° [2, 3]: ΔtrG° = −19.99 ± 0.4/kJ·mol^−1
ΔtrH° [2, 3]: ΔtrH° = 20.95 ± 0.2/kJ·mol^−1
ΔtrS° [2, 3]: ΔtrS° = 137.3 ± 5.2/J·mol^−1K^−1
